Test results taken from patent US7807383B2, “Diagnosing and treating hormone resistant cancers” (Board of Regents, The University of Texas System, priority 2007, dated 2010).

Target: T1, DBC-1/ERα interaction (Homo sapiens, UniProt P03372)
T1 sequence (P03372 1-595): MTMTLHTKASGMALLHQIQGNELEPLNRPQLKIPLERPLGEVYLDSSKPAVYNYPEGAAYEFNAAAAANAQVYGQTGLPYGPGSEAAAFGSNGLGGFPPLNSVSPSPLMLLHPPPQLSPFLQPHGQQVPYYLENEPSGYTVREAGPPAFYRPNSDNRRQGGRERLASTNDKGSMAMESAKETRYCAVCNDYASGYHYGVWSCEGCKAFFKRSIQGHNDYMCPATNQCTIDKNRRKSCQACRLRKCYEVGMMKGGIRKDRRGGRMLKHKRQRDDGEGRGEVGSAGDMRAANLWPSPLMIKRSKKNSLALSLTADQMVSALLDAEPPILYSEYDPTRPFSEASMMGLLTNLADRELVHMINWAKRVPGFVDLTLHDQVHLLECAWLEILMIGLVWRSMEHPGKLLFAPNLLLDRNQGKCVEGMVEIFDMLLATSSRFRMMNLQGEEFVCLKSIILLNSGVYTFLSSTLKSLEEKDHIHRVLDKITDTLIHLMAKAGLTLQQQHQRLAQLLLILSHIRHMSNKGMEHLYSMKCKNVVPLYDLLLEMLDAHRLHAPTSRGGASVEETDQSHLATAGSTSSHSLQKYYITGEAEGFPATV
Settings: MCF-7 and BG-1 cells, hormone-free medium; E2 10^−7 M, 4-OHT 10^−6 M, ICI 10^−7 M; one hour
Text: Results are representative of at least three independent experiments.

## C[C@]12CC[C@@H]3c4ccc(O)cc4C[C@@H](CCCCCCCCC[S+]([O-])CCCC(F)(F)C(F)(F)F)[C@H]3[C@@H]1CC[C@@H]2O (stereo partly shown) [ICI 182,780]
  effect on DBC-1/ERα interaction (co-immunoprecipitation): disrupted the DBC-1/ERα interaction
